Source: ChEMBL document CHEMBL3397011, “A novel molecule with notable activity against multi-drug resistant tuberculosis” (Bioorg Med Chem Lett, 2015)
Values after ≈ are worked out from the molar mass of the structure shown. Active and inactive are the calls of the source. No cut-off for these calls is given here.

Key:
Assay type in all cases: functional
[1] = system: Mycobacterium tuberculosis; experiment: Antimicrobial activity against isoniazid and rifampin resistant Mycobacterium tuberculosis after 21 days at 37 degC by agar dilution drug susceptibility assay
[2] = system: Mycobacterium tuberculosis; experiment: (§1) Antimicrobial activity against isoniazid and rifampin resistant Mycobacterium tuberculosis after 21 days at 37 degC in presence of PA-824 by agar dilution drug susceptibility assay; conditions: 504 h
[3] = system: Mycobacterium tuberculosis; experiment: (§2) Antimicrobial activity against isoniazid and rifampin resistant Mycobacterium tuberculosis assessed as ratio of MIC combination/MIC compound alone after 21 days at 37 degC in presence of PA-824 by agar dilution drug susceptibility assay
[4] = system: Mycobacterium tuberculosis; experiment: (§3) Antimicrobial activity against isoniazid and rifampin resistant Mycobacterium tuberculosis assessed as reduction in colony forming unit after 21 days at 37 degC in presence of PA-824 by agar dilution drug susceptibility assay; design: scale not given: the % may be the effect or the level left
[5] = system: Mycobacterium tuberculosis; experiment: as §1, with “1-(4-(4-(1H-pyrrol-1-yl)phenyl)piperazin-1-yl)-4-(5-(3,5-difluorobenzyl)-1-(2-fluorobenzyl)-2-oxo-1,2-dihydropyridin-3-yl)-2-hydroxybut-2-ene-1,4-dione” for “PA-824”
[6] = system: Mycobacterium tuberculosis; experiment: as §2, with “1-(4-(4-(1H-pyrrol-1-yl)phenyl)piperazin-1-yl)-4-(5-(3,5-difluorobenzyl)-1-(2-fluorobenzyl)-2-oxo-1,2-dihydropyridin-3-yl)-2-hydroxybut-2-ene-1,4-dione” for “PA-824”
[7] = system: Mycobacterium tuberculosis; experiment: as §3, with “1-(4-(4-(1H-pyrrol-1-yl)phenyl)piperazin-1-yl)-4-(5-(3,5-difluorobenzyl)-1-(2-fluorobenzyl)-2-oxo-1,2-dihydropyridin-3-yl)-2-hydroxybut-2-ene-1,4-dione” for “PA-824”; design: scale not given: the % may be the effect or the level left

Compound: CN[C@@H]1[C@H](O[C@H]2[C@H](O[C@H]3[C@H](O)[C@@H](O)[C@H](N=C(N)N)[C@@H](O)[C@@H]3N=C(N)N)O[C@@H](C)[C@]2(O)C=O)O[C@@H](CO)[C@H](O)[C@H]1O
- MIC [1]: Active

Compound: O=C(/C=C(\O)C(=O)N1CCN(c2ccc(-n3cccc3)cc2)CC1)c1cc(Cc2cc(F)cc(F)c2)cn(Cc2ccccc2F)c1=O
- MIC [2]: 0.195 µg/mL
- fractional inhibitory concentration index (FICI) [3]: 0.125
- Activity [4]: >99%
- MIC ([1]; 504 h): 1.56 µg/mL (≈ 2.39 µM)

Compound: O=C(/C=C(\O)C(=O)N1CCN(c2ccc(-n3ccnc3)cc2)CC1)c1cc(Cc2cc(F)cc(F)c2)cn(Cc2ccccc2F)c1=O
- MIC ([1]; 504 h): 6.25 µg/mL (≈ 9.56 µM)

Compound: O=C(/C=C(\O)C(=O)N1CCN(c2ccc(-n3cccn3)cc2)CC1)c1cc(Cc2cc(F)cc(F)c2)cn(Cc2ccccc2F)c1=O
- MIC ([1]; 504 h): 3.12 µg/mL (≈ 4.78 µM)

Compound: O=[N+]([O-])c1cn2c(n1)OC[C@@H](OCc1ccc(OC(F)(F)F)cc1)C2 [PRETOMANID]
- MIC [5]: 0.031 µg/mL
- fractional inhibitory concentration index (FICI) [6]: 0.246
- MIC ([1]; 504 h): 0.126 µg/mL (≈ 0.351 µM)
- Activity [7]: >99%

Compound: O=C(/C=C(\O)C(=O)N1CCN(c2ccc(-n3cccc3)cc2)CC1)c1cc(Cc2ccccc2)cn(Cc2ccccc2)c1=O
- MIC ([1]; 504 h): 3.12 µg/mL (≈ 5.22 µM)
